Legend:
N2a cells [1] = test: H2O2 production (Amplex Red H2O2 assay); assay type: cell-based, mouse
Experimental: (§1) Tissue culture: The N2a cells were grown for 3 days in a serum-free medium (1:1 mixture of DMEM and OptiMEM, plus penicillin and streptomycin [Invitrogen, Carlsbad, Calif., USA]) until the cells developed neuronal processes.
Mitochondrial functional assays. H2O2 production: Using an Amplex® Red H2O2 assay kit (Molecular Probes, Eugene, Oreg., USA), H2O2 production was measured using cell pellets, as described in Manczak and Reddy. Briefly, H2O2 production was measured in the protein lysates prepared from cell pellets of control untreated N2a cells and 4 treatment groups (FIG. 1). A BCA protein assay kit (Pierce Biotechnology) was used to estimate protein concentration. The reaction mixture contained mitochondrial proteins (μg/μl), Amplex Red reagents (50 μM), horseradish peroxidase (0.1 U/ml), and a reaction buffer (1×). The mixture was incubated at room temperature for 30 minutes, followed by spectrophotometer readings of fluorescence (570 nm). Finally, H2O2 production was determined, using a standard curve equation expressed in nmol/μg mitochondrial protein.

N2a cells [2] = test: Lipid peroxidation assay (4-hydroxy-2-nonenol, HNE-His ELISA); assay type: cell-based, mouse
Experimental: as §1
Lipid peroxidation assay: Lipid peroxidates are unstable indicators of oxidative stress in the brain. The final product of lipid peroxidation is 4-hydroxy-2-nonenol (HNE), which was measured in the N2a cell lysates prepared from cell pellets of control and treatment groups. The inventors used an HNE-His ELISA kit (Cell BioLabs, Inc., San Diego, Calif., USA), as described in Manczak and Reddy. Briefly, freshly prepared protein as added to a 96-well protein binding plate and incubated overnight at 4° C. The protein then washed 3 times with a buffer. After the last wash, the anti-HNE-His antibody was added to the protein in the wells, incubated for 2 hours at room temperature, and then washed again 3 times. The samples were then incubated with a secondary antibody conjugated with peroxidase for 2 hours at room temperature, followed by incubation with an enzyme substrate. Optical density was measured (at 450 nm) to quantify the level of HNE.

N2a cells [3] = test: Cytochrome c oxidase activity; assay type: cell-based, mouse
Experimental: as §1
Cytochrome c oxidase activity: Cytochrome oxidase activity was measured in each of the 5 groups of N2a cells. Enzyme activity was assayed spectrophotometrically using a Sigma Kit (Sigma-Aldrich) following manufacturer's instructions. […] The decrease in absorbance at […] was recorded for 1-min reactions at 10-sec intervals. Cytochrome oxidase activity was measured according to the following formula: mU/mg total mitochondrial protein=(A/min sample−(A/min blank)×1.1 mg protein×21.84). The protein concentrations were determined following the BCA method.

N2a cell mitochondria = test: Mitochondrial ATP levels (luciferase bioluminescence); assay type: cell-based, mouse; conditions: N2a cells
Experimental: as §1
ATP levels: ATP levels were measured in N2a cell mitochondria from the treatment groups using an ATP determination kit (Molecular Probes). A bioluminescence assay was used, based on the reaction of ATP with recombinant firefly luciferase and its substract luciferin. Luciferase catalyzes the formation of light from ATP and luciferin. It is the emitted light that is linearly related to the concentration of ATP, which is measured with a luminometer. ATP levels were measured from mitochondrial pellets using a standard curve method.

N2a cells [4] = test: Cell viability (MTT assay); assay type: cell-based, mouse
Experimental: as §1
The N2a cells from all 5 groups (4 treatment groups and 1 control group) were harvested, and their cell pellets were collected and used for quantitative real-time RT-PCR, immunoblotting analysis of mitochondrial and synaptic proteins, and mitochondrial functional assays for hydrogen peroxide production, lipid peroxidation, cytochrome c oxidase activity, and MTT determination. Isolated mitochondria from N2a cells from all 5 groups were used to determine mitochondrial ATP as described in Reddy et al..

[5] = tested on: mouse neuroblastoma (N2a) cells; test: Quantitative real-time RT-PCR: mRNA expression of mitochondrial dynamics, biogenesis and synaptic genes; assay type: cell-based; conditions: vs Aβ42 treated cells
GTPase Drp1 = conditions: by blocking the self-assembly of Drp1; reference [34]; cited from earlier work
[6] = Aβ42 6 hrs then Mdivi1 24 hrs (Aβ42+Mdivi1), vs untreated N2a cells
[7] = Mdivi1 24 hrs then Aβ42 6 hrs (Mdivi1+Aβ42), vs untreated N2a cells
[8] = Mdivi1 24 hrs or Aβ42 20 μM 6 hrs alone, vs untreated N2a cells
[9] = Aβ42 6 hrs then Mdivi1 24 hrs (Aβ42+Mdivi1)

COc1cc(-n2c(S)nc3ccccc3c2=O)c(Cl)cc1Cl [Mdivi1, 3-(2,4-Dichloro-5-methoxyphenyl)-2,3-dihydro-2-thioxo-4(1H)-quinazolinone]
H2O2 levels (N2a cells [1]; Aβ42 6 hrs then Mdivi1 24 hrs (Aβ42+Mdivi1), vs N2a+Aβ42 cells): significantly lower
H2O2 levels (N2a cells [1]; [6]): unchanged
H2O2 levels (N2a cells [1]; Mdivi1 24 hrs then Aβ42 6 hrs (Mdivi1+Aβ42), vs N2a+Aβ42 cells): significantly lower
H2O2 levels (N2a cells [1]; [7]): unchanged
Lipid peroxidation levels (4-hydroxy-2-nonenol) (N2a cells [2]; Aβ42 6 hrs then Mdivi1 24 hrs (Aβ42+Mdivi1), vs N2a cells treated only with Aβ42): Significantly lower
Lipid peroxidation levels (4-hydroxy-2-nonenol) (N2a cells [2]; [8]): significantly lower
Lipid peroxidation levels (4-hydroxy-2-nonenol) (N2a cells [2]; Mdivi1 24 hrs then Aβ42 6 hrs (Mdivi1+Aβ42), vs N2a cells treated only with Aβ42): Significantly lower
Cytochrome oxidase activity (N2a cells [3]; Aβ42 6 hrs then Mdivi1 24 hrs (Aβ42+Mdivi1), vs cells treated with Aβ42 alone): significantly increased
Cytochrome oxidase activity (N2a cells [3]; [6]): increased levels
Cytochrome oxidase activity (N2a cells [3]; [8]): increased levels
Cytochrome oxidase activity (N2a cells [3]; Mdivi1 24 hrs then Aβ42 6 hrs (Mdivi1+Aβ42), vs cells treated with Aβ42 alone): significantly increased
Cytochrome oxidase activity (N2a cells [3]; [7]): increased levels
Mitochondrial ATP levels (N2a cell mitochondria; Aβ42 6 hrs then Mdivi1 24 hrs (Aβ42+Mdivi1), vs Aβ42-treated N2a cells (FIG. 7B)): Significantly higher
Mitochondrial ATP levels (N2a cell mitochondria; [8]): Significantly increased
Mitochondrial ATP levels (N2a cell mitochondria; Mdivi1 24 hrs then Aβ42 6 hrs (Mdivi1+Aβ42), vs Aβ42-treated N2a cells (FIG. 7B)): Significantly higher
Cell viability (N2a cells [4]; Aβ42 6 hrs then Mdivi1 24 hrs (Aβ42+Mdivi1), vs N2a+Aβ42): higher
Cell viability (N2a cells [4]; [8]): significantly higher
Cell viability (N2a cells [4]; Mdivi1 24 hrs then Aβ42 6 hrs (Mdivi1+Aβ42), vs N2a+Aβ42): higher
Nrf2 mRNA fold change [5, 9]: 2.0 fold
PSD95 mRNA fold change [5, 9]: 8.6 fold
TFAM mRNA fold change [5, 9]: 2.9 fold
Mfn1 mRNA fold change ([5]; Mdivi1 24 hrs then Aβ42 6 hrs (Mdivi1+Aβ42)): 2.6 fold
GTPase Drp1 activity (GTPase Drp1): inhibits

From patent US20190307749A1, “Mitochondria-Division Inhibitor 1 Protects Against Amyloid-B Induced Mitochondrial Fragmentation and Synaptic Damage in Alzheimer's Disease” (Texas Tech University System, priority 2018, published 2019)
